Test results reported in a melting point compilation (Tetko et al.; mined from patent text by program, amines drawn as free bases though some values may be those of a salt).

Row | Structure (SMILES) | melting point [°C]
1 | O=C1CCCN1c1cc(-c2ccnc(Nc3cccc(Cl)c3)n2)ccn1 | 165 to 166
2 | OC1CCN(c2cc(-c3ccccc3)nc(-c3ccccc3)n2)CC1 | 158 to 160
3 | CC(CS(=O)(=O)c1ccccc1)C1CCC2C3CC=C4C(C)(C)C(O)CCC4(C)C3CCC12C (stereo unspecified) | 176 to 181
4 | FC(F)(F)C=NNc1c(Cl)cc(C(F)(F)F)cc1Cl | 45 to 46
5 | N#Cc1cccc2c1OCC2 | 54.5 to 56
6 | COc1nc2ccccc2cc1NC(=O)N1CCN(c2ccccc2Cl)CC1 | 79 to 80
7 | Nc1ncnc2c1ncn2OCCCOCP(=O)(O)O | 246 to 249
8 | O=C(c1ccc(-c2ccccc2)cc1)C1(n2cncn2)CC1 | 154 to 155
9 | CCOC(=O)N1Cc2ccccc2C(Oc2ccc([N+](=O)[O-])cc2)C1 (stereo unspecified) | 118 to 119
10 | O=C(O)CCCCC=C(c1ccccc1)c1ccccc1 | 71.5 to 72.5
11 | CCCCC#Cc1nc(N)n2nc(-c3ccco3)nc2n1 | 188 to 191
12 | Nc1cccc(-c2ccnc3c(C(=O)c4cccs4)cnn23)c1 | 183 to 184
13 | CCCCCCCCCCCCCCCc1cccc(OCC(=O)O)c1 | 96
14 | Cc1nc2n(c(=O)c1CCCl)CCCC2OCc1ccccc1 (stereo unspecified) | 140 to 141
15 | CCOC=Nn1c(NC)n[nH]c1=O | 169
16 | O=C(CCCC(Cl)=C(C(=O)O)c1csc(NC(=O)OCc2ccccc2)n1)OCc1ccccc1 | 146 to 147
17 | COc1ccc(C(=O)OC2C=C(C)C(=O)CC(C)(C)C2O)cc1OC (stereo unspecified) | 161 to 164
18 | CC(C)(C)C1CCc2nnc(Cl)cc2C1 (stereo unspecified) | 96 to 97
19 | CN1C(=O)CC[C@]2(C)c3ccc(Sc4ccc5cc(F)ccc5n4)cc3CC[C@@H]12 | 152 to 155
20 | CC1=CC=CC(O)(C(=N)N)C1C (stereo unspecified) | 110 to 111
21 | O=C(O)CN(CC(=O)O)c1cc(OCCCCCCCCCCCCOc2ccccc2)cc(OCCCCCCCCCCCCOc2ccccc2)c1 | 72 to 74
22 | O=C1CN2Cc3cc(C(=O)c4cccnc4)ccc3N=C2N1 | 275
23 | CNCC(=O)Nc1ccc(C2=NN(C(C)=O)C(C)Cc3cc4c(cc32)OCO4)cc1 (stereo unspecified) | 220 to 222
24 | CCCCCCOC(=O)c1cccc(-c2cn(C)cc(-n3cccn3)c2=O)c1 | 96 to 97

Row | Structure (SMILES) | melting point [°C]
25 | CC(C)CN1C(=O)[C@@H](CCCl)O[C@H](c2ccccc2Cl)c2cc(Cl)ccc21 (relative stereo) | 138 to 140
26 | CCOC(=O)c1c[nH]c2c(O)c(OC)ccc2c1=O | 233 to 236
27 | COc1cc(C(O)c2cccs2)cc([N+](=O)[O-])c1OC (stereo unspecified) | 79 to 81
28 | CCCCCCCCCCCCCCCCOCC(COP(=O)(O)O)OCCCCCCCCCCCCCCCC (stereo unspecified) | 157 to 159
29 | Nc1cn(-c2cccnc2)nc1Br | 143 to 146
30 | COc1cccc(CC(=O)N2CCN(c3cccc(C(F)(F)F)c3)CC2)c1 | 99 to 101
31 | CCN(c1ccc(C(=O)c2ccccc2)cc1[N+](=O)[O-])C1CCCCC1 | 91.5 to 92
32 | COc1ccc(C(=O)Nc2ccccc2)cc1Oc1ccccc1 | 200 to 201
33 | O=S(=O)(c1ccccc1)n1c(Sc2cc(Cl)cc(Cl)c2)cc2cc(Cl)ccc21 | 121 to 122
34 | C[C@@H]1Cc2cc(N3C[C@H](C(N)=O)OC3=O)ccc2N1C(=O)CO | 198 to 200
35 | O=C(Nc1nc(-c2ccco2)c(C(=O)C2CCOCC2)s1)c1ccc(F)cc1 | 131 to 132
36 | O=C(OC(c1ccccc1)c1ccccc1)C(O)Cc1ccc(F)cc1 (stereo unspecified) | 52 to 54
37 | COC(=O)c1ccc(CCC(C)(C)NCC(O)c2cc3ccccc3o2)cc1 (stereo unspecified) | 141 to 145
38 | Cc1ccc2[nH]c(=O)cc(CCCl)c2c1 | 215 to 216
39 | CS(=O)(=O)Oc1cccc2c1CCCN2 | 74 to 76
40 | CC(C)CC(NC(=O)C1CCCCC1NC(=O)OCc1ccccc1)C(N)=O (stereo unspecified) | 188 to 190
41 | COC(=O)c1cc(C)c(C(OC(=O)C(Cc2ccccc2)NS(=O)(=O)c2ccc(C)cc2)c2cc(-n3ccnc3)ccc2C)c(C)c1 (stereo unspecified) | 111 to 112
42 | CCn1nc(-c2ccc3cc(O)ccc3c2)c2ccc(O)cc21 | 146 to 148
43 | Cc1nccn1CC(COc1cccc(Cl)c1)Sc1c(Cl)cccc1Cl (stereo unspecified) | 162 to 163
44 | COc1cc2c(cc1Nc1ncc(Cl)c(Nc3ccc(N4CCOCC4)cc3OC)n1)CCN(C(=O)CN(C)C)CC2 | 84 to 101
45 | CC(=O)N(CCCOc1ccc(C(=O)O)cc1)c1ccc(Cl)cc1 | 169 to 171
46 | O=C1c2cc(O)ccc2NCC1Cc1ccccc1 (stereo unspecified) | 143 to 149
47 | CC1c2cc(C(C)(C)C)cc(C(C)(C)C)c2O[Si](C)(C)Oc2c1cc(C(C)(C)C)cc2C(C)(C)C | 171 to 177
48 | CCS(=O)(=O)Nc1ccc(F)c([N+](=O)[O-])c1 | 133 to 136

Row | Structure (SMILES) | melting point [°C]
49 | CCCC(=O)N1CCc2nnc(NN=C(C)C)cc2C1 | 152 to 154
50 | O=C1CCC(c2ccccc2)(c2ccccc2)C2CN(C(Cc3ccccc3)=NCc3ccc(Cl)cc3)CC12 (stereo unspecified) | 198
51 | CCCCNCC(=O)Nc1ccc2c(c1)C(=O)c1cc(NC(=O)CNCCCC)ccc1C2=O | 125
52 | Cc1ccc(-c2nc(C(F)(F)F)cn2-c2ccc(S(C)(=O)=O)cc2)nc1 | 196
53 | Cc1cc(O)ccc1C(=O)O | 160 to 161
54 | CC(C)(C)OC(=O)NC1C(=O)N(C(O)C(=O)OC(c2ccccc2)c2ccccc2)C1CBr (stereo unspecified) | 133 to 137
55 | Cc1cccc(-c2ccc3ccc(NC(=O)c4cccc(Br)c4)nc3n2)c1 | 100
56 | Cc1c(NC(=O)c2ccc(-c3ccc4c(c3)OCCO4)cc2)ccc2cc(CN3CCCC3)cnc12 | 187 to 188
57 | COc1ccc(Cn2nnc(-c3cccc(CO)c3)n2)cc1 | 70 to 72
58 | Cc1ccc(S(=O)(=O)OC2CCC(C)C2)cc1 (stereo unspecified) | < 30
59 | CCCCCCCCCCCCCCC(F)(F)P(=O)(O)O | 66 to 69
60 | CSc1nc(SC)c(NC(=O)CCCCCSc2nc3ccccc3o2)c(SC)n1 | 149 to 153
61 | Cc1cc(C)cc(COC(=O)C(Cc2c[nH]c3ccccc23)NC(=O)C2CCCCC2)c1 (stereo unspecified) | 143 to 144
62 | CCCCOc1ccc(S(C)(=O)=O)cc1-c1nc2c(CC)n(C3CN(C(C)C)C3)nc2c(=O)[nH]1 | 209 to 213
63 | O=Cc1ccc2c(c1)NC(=O)CO2 | 220 to 222
64 | O=C(NC1Cc2ccccc2C1)C(F)(F)F | 160
65 | CCN(C(=O)c1ccccc1C(=O)c1ccc(F)cc1)C(C)(C)CNS(=O)(=O)c1ccc(C)cc1 | 154 to 156
66 | CCOC(=O)COc1ccc(C(=O)CCC(=O)O)cc1Cl | 137 to 139
67 | COc1cc(C(=O)Cc2ccccc2C)cc([N+](=O)[O-])c1O | 150 to 151
68 | CCC1(C)Cc2ccc(C(C)C(=O)O)cc2C1 (stereo unspecified) | 165 to 167
69 | CN1C(=O)Cc2cc(C3=NNC(=O)C4CC34)ccc21 (stereo unspecified) | 265 to 267
70 | OCCC#Cc1ccc2c(-c3ccc(Cl)cc3)nsc2c1 | 128 to 129
71 | Cc1c(CC(=O)NS(=O)(=O)c2ccccc2)c2cc(OCc3ccc4ccccc4n3)ccc2n1Cc1ccc(Cl)cc1 | 194 to 197
